Test results as given in US6689383B1, “Chromium-histidine complexes as nutrient supplements” (The United States of America as represented by the …, priority 1999, dated 2004).
Where two headings read alike, the source gives them in different places. Marks after values point to notes of the source that are not given here.

How the values were obtained:
[1] = Chromium absorption in humans based on urinary chromium excretion
Protocol: Experiments were carried out to investigate the efficacy of chromium-histidine complexes in the absorption process. Chromium was administered in the formulations listed in Table 1 at dosages of 200 μg chromium to three adult males and three females, and absorption during the first 24 hours was measured based on urinary chromium excretion.

[2] = chromium picolinate: at intakes up to 1000 μg per day; cited from earlier work
Water solubility = assay type: physicochemical
Stability = assay type: physicochemical; details: aqueous solutions
hemoglobin A1C = details: type 2 diabetes, cited from earlier work
steroid-induced diabetes = details: 600 μg of chromium per day for 2 weeks followed by daily maintenance dose of 200 μg; cited from earlier work
insulin sensitivity = details: 1000 μg daily of supplemental chromium, obese subjects with family history of diabetes; cited from earlier work

Compound: [Cl][Cr]([Cl])[Cl] [Chromium chloride]
- μGRAMS ABSORBED (chromium absorbed) ([1]; first 24 hours following intake of 200 μg of chromium, based on urinary chromium excretion, 3 adult males and 3 females): 0.44 ± 0.07^b μGRAMS
- Absorption of chromium [2]: approximately 0.4%

Compound: N[C@@H](Cc1c[nH]cn1)C(=O)O.[Cr] [Chromium histidine]
- Absorption level relative to chromium picolinate ([1]; 200 μg chromium, first 24 hours, urinary chromium excretion): almost twice
- Water solubility (Water solubility): water-soluble
- Stability (Stability): stable in aqueous solutions

Compound: Chromium picolinate
- Hemoglobin A1C (hemoglobin A1C; 200 μg chromium per day for 4 months): 7.5±0.2%
- Hemoglobin A1C (hemoglobin A1C; 1000 μg of chromium per day for 4 months): 6.6±0.1%
- People whose steroid-induced diabetes improved to acceptable levels (steroid-induced diabetes): 47 of 50
- Insulin sensitivity (insulin sensitivity): improved
